According to ChEMBL document CHEMBL1212923, “Synthesis and in vivo evaluation of phenethylpiperazine amides: selective 5-hydroxytryptamine(2A) receptor antagonists for the treatment of insomnia” (J Med Chem, 2010):
The source made the active and inactive calls. The rule behind the calls is not given here.

Experiments:
[1] = molecular target: T1, 5-hydroxytryptamine receptor 2C (Homo sapiens, UniProt P28335); type: cell-based, HEK293
T1 sequence (P28335 whole entry): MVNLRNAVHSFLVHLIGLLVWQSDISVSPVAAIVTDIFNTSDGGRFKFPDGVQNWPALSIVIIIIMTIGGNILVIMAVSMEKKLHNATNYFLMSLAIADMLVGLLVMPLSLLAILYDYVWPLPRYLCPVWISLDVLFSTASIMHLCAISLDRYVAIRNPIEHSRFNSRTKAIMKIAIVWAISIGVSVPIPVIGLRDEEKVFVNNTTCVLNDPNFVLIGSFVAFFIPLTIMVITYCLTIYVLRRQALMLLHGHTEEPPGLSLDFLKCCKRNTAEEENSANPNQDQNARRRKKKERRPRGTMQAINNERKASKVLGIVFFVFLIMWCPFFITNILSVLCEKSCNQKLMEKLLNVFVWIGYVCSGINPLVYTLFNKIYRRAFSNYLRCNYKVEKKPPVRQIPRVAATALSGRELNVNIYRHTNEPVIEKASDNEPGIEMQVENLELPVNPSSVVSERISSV

[2] = molecular target: 5-hydroxytryptamine receptor 2A (Homo sapiens, UniProt P28223); test: biochemical
Chain of 5-hydroxytryptamine receptor 2A (P28223 whole entry): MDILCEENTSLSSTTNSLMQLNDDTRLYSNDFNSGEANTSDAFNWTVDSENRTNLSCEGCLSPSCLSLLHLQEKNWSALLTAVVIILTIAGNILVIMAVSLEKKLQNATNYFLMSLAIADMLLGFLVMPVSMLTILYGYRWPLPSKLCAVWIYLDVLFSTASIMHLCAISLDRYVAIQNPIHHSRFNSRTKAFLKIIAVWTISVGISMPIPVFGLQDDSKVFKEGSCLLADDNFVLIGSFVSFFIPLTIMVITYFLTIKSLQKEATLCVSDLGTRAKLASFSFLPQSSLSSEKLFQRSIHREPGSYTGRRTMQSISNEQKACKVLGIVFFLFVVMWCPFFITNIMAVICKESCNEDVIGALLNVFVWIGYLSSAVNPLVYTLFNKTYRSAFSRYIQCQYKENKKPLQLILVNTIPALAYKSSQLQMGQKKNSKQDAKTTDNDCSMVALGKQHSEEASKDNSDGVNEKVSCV
Description: Displacement of [125I]DOI from human recombinant 5HT2A receptor expressed in HEK293 cells after 1 hr by scintillation counting

Cytochrome P450 2C9 = Cytochrome P450 2C9 (Homo sapiens, UniProt P11712); test: Inhibition of CYP2C9 in human liver microsomes; type: ADME, Microsome
Chain of Cytochrome P450 2C9 (P11712 whole entry): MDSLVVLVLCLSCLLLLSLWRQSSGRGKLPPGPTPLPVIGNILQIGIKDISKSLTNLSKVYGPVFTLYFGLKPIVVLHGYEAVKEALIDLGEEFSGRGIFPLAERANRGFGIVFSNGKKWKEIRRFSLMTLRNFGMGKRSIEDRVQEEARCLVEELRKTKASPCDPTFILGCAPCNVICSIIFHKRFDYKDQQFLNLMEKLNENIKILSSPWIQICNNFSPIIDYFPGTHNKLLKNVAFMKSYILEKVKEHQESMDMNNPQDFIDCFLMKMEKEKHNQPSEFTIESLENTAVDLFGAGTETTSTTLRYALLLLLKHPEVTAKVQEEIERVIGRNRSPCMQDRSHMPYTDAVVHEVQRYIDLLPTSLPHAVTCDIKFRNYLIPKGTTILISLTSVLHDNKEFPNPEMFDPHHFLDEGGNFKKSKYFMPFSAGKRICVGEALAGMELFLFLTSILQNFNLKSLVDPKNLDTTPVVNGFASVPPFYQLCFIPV

[3] = Cmax in Sprague-Dawley rat at 10 mg/kg, po; type: ADME, organism-based; set-up: dose 10 mg/kg, route oral; settings: in vivo
[4] = Drug level in Sprague-Dawley rat plasma at 0.3 mg/kg, po after 0.75 hrs; type: ADME, organism-based; set-up: dose 0.3 mg/kg, route oral; settings: read-out: Drug uptake
[5] = Oral bioavailability in Sprague-Dawley rat at 10 mg/kg relative to 2 mg/kg, iv dose; type: ADME, organism-based; settings: in vivo
Cytochrome P450 2C19 = Cytochrome P450 2C19 (Homo sapiens, UniProt P33261); test: Inhibition of CYP2C19 in human liver microsomes; type: ADME, Microsome
Chain of Cytochrome P450 2C19 (P33261 whole entry): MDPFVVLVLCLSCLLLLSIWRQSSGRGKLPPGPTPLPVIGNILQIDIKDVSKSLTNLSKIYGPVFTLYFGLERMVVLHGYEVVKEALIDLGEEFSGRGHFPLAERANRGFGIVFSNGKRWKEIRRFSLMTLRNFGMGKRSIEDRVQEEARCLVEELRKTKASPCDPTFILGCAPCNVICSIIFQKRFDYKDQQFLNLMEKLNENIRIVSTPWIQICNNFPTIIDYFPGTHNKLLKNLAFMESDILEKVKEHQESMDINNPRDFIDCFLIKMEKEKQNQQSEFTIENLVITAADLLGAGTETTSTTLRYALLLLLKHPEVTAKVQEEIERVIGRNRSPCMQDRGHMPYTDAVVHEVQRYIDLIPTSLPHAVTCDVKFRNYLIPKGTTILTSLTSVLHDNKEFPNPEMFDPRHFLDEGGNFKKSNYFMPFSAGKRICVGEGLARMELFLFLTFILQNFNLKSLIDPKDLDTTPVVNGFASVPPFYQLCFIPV

Rattus norvegicus [6] = test: Inhibition of DOI-induced hypolocomotion in po dosed Sprague-Dawley rat administered 25 mins before DOI challenge measured after 10 mins; type: functional, organism-based
Rattus norvegicus [7] = test: Inhibition of DOI-induced hypolocomotion in Sprague-Dawley rat at 1 mg/kg, po administered 25 mins before DOI challenge measured after 10 mins; type: functional
Rattus norvegicus [8] = test: Effect on behavioral activity in po dosed Sprague-Dawley rat assessed as increase in sleep consolidation after 5 hrs; type: functional, organism-based
Cytochrome P450 1A2 = molecular target: T2, Cytochrome P450 1A2 (Homo sapiens, UniProt P05177); test: Inhibition of CYP1A2 in human liver microsomes; type: ADME, Microsome
T2 sequence (P05177 whole entry): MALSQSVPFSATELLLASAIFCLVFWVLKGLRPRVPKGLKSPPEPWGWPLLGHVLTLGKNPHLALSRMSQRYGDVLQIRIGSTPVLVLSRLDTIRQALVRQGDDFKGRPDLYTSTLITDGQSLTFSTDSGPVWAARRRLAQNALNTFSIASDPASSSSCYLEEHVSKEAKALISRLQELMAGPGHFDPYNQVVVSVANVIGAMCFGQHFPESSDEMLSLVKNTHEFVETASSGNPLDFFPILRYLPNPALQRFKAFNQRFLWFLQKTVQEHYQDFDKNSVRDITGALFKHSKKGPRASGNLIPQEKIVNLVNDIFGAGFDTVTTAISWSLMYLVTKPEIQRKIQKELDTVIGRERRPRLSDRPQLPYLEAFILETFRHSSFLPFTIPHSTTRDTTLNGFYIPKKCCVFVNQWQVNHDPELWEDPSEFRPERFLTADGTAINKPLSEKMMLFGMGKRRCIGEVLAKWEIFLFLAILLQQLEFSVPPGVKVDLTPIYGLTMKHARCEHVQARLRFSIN

Cytochrome P450 3A4 = Cytochrome P450 3A4 (Homo sapiens, UniProt P08684); test: Inhibition of CYP3A4 in human liver microsomes; type: ADME, Microsome
Chain of Cytochrome P450 3A4 (P08684 whole entry): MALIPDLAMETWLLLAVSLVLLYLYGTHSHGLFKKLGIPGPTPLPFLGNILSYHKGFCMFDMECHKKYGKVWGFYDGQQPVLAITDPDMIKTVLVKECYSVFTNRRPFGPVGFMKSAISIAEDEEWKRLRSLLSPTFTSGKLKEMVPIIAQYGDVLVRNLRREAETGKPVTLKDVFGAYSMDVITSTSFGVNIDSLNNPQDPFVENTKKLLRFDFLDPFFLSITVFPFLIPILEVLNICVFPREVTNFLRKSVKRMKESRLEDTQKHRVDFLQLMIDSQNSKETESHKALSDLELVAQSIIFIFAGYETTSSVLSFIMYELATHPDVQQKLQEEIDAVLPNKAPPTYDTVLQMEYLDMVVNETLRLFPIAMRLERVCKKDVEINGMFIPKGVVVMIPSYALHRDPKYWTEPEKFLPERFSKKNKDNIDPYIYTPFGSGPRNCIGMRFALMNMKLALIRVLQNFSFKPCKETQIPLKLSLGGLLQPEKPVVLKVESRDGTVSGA

[9] = Total clearance in Sprague-Dawley rat at 2 mg/kg, iv; type: ADME, organism-based; set-up: dose 2 mg/kg, route intravenous; settings: in vivo
Cytochrome P450 2D6 = Cytochrome P450 2D6 (Homo sapiens, UniProt P10635); test: Inhibition of CYP2D6 in human liver microsomes; type: ADME, Microsome
Chain of Cytochrome P450 2D6 (P10635 whole entry): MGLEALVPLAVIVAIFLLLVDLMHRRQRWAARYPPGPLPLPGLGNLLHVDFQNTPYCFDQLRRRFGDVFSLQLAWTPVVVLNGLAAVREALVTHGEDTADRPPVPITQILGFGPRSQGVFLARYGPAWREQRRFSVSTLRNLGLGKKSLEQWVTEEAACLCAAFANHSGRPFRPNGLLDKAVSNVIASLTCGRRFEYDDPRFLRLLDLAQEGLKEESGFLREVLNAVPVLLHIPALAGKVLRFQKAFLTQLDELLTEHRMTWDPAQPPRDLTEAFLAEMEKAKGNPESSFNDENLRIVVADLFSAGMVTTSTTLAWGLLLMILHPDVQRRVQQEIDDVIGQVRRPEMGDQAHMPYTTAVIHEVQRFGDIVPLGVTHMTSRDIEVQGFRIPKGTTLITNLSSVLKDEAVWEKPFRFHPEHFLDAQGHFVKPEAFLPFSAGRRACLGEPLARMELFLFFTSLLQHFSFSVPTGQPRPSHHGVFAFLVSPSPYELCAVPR

Rattus norvegicus [10] = test: Effect on behavioral activity in Sprague-Dawley rat assessed as increase in deep sleep at 0.1 mg/kg, po after 1 hr; type: functional, organism-based; set-up: dose 0.1 mg/kg
[11] = AUClast in Sprague-Dawley rat at 10 mg/kg, po; type: ADME, organism-based; set-up: time 0 - last, dose 10 mg/kg, route oral; settings: plasma
[12] = Half life in rat liver microsomes; type: ADME, Microsome
Rattus norvegicus [13] = test: Effect on behavioral activity in Sprague-Dawley rat assessed as increase in deep sleep at 0.1 mg/kg, po after 3 to 4 hrs; type: functional, organism-based; set-up: dose 0.1 mg/kg
Rattus norvegicus [14] = test: Volume of distribution at steady state in Sprague-Dawley rat at 10 mg/kg, po; type: ADME, organism-based; set-up: dose 10 mg/kg, route oral; settings: in vivo
Rattus norvegicus [15] = test: Inhibition of DOI-induced hypolocomotion in Sprague-Dawley rat at 3 mg/kg, po administered 25 mins before DOI challenge measured after 10 mins; type: functional
[16] = Drug level in Sprague-Dawley rat brain at 0.3 mg/kg, po after 0.75 hrs; type: ADME, organism-based; set-up: dose 0.3 mg/kg, route oral; settings: read-out: Drug uptake
[17] = Half life in Sprague-Dawley rat at 10 mg/kg, po; type: ADME, organism-based; set-up: dose 10 mg/kg, route oral; settings: in vivo
hERG (KCNH2) = hERG (KCNH2) (Homo sapiens, UniProt Q12809); test: Inhibition of human ERG at 3 uM by patch clamp electrophysiology assay
Chain of hERG (KCNH2) (Q12809 whole entry): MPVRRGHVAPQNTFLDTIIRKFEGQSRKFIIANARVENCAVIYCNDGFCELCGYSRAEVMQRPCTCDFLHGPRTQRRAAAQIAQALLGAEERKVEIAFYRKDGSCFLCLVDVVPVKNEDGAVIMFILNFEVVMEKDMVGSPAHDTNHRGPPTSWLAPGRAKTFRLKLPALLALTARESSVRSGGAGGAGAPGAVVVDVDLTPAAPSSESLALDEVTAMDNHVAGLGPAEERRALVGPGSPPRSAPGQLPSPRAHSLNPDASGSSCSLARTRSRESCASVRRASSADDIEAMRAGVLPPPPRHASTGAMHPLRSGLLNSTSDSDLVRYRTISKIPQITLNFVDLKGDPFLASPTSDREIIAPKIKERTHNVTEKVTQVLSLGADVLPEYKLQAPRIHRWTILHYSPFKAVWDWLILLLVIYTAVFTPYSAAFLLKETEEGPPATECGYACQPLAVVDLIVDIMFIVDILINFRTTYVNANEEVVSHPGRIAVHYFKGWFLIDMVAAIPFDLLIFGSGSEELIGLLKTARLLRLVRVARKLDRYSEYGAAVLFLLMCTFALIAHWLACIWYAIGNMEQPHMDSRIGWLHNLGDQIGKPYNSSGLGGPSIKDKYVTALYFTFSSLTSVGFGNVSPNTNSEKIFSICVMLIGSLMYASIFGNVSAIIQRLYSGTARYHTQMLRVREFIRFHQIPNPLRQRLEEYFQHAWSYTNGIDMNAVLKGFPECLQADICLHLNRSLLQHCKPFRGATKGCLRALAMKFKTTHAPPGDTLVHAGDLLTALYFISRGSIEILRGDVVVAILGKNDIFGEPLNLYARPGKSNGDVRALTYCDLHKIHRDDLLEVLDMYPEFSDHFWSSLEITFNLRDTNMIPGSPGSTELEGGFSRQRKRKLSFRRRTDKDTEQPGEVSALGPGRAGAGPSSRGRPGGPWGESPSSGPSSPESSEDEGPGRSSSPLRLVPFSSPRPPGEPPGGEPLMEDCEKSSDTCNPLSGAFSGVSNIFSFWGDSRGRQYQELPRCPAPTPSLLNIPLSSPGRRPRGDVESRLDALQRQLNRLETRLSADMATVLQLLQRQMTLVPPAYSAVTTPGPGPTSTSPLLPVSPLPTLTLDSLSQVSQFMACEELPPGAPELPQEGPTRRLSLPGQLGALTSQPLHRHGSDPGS

[18] = Drug level in Sprague-Dawley rat plasma at 3 mg/kg, po after 0.75 hrs; type: ADME, organism-based; set-up: dose 3 mg/kg, route oral; settings: read-out: Drug uptake
Rattus norvegicus [19] = test: Hepatic blood flow in Sprague-Dawley rat at 10 mg/kg, po; type: ADME, organism-based, Liver; set-up: dose 10 mg/kg, route oral; settings: in vivo
[20] = Drug level in Sprague-Dawley rat brain at 3 mg/kg, po after 0.75 hrs; type: ADME, organism-based; set-up: dose 3 mg/kg, route oral; settings: read-out: Drug uptake
[21] = Ratio of drug level in brain to plasma in Sprague-Dawley rat at 3 mg/kg, po after 0.75 hrs; type: ADME, organism-based; set-up: dose 3 mg/kg, route oral

Row | Ki [1] [µM] | Ki [2] [µM] | SMILES | other results
1 | 8.6 | 2.47 | CO/N=C(/CN1CCN(C(=O)c2nn(C)cc2Br)CC1)c1ccc(F)cc1 | 
2 | > 10 | 0.07 | Cn1cc(Br)c(C(=O)N2CCN(CC(=O)c3ccc(F)cc3F)CC2)n1 | 
3 | 9.8 | 0.27 | Cn1cc(Br)c(C(=O)N2CCN(CC(=O)c3ccccc3F)CC2)n1 | 
4 | > 10 | 0.542 | Cn1cc(Br)c(C(=O)N2CCN(CCc3cccc(F)c3)CC2)n1 | 
5 | > 10 | 0.865 | Cn1cc(Br)c(C(=O)N2CCN(CC(=O)c3ccc(C(F)(F)F)cc3)CC2)n1 | 
6 | 2.12 |  | Cn1cc(Br)c(C(=O)N2CCN(CC(=O)c3ccc(F)cc3)CC2)n1 | inhibition (INH) (Cytochrome P450 2C9): Not Active; Cmax [3]: 1.26 µg/mL; concentration at 0.75 h [4]: 0.0178 µg/mL; bioavailability [5]: 59%; inhibition (INH) (Cytochrome P450 2C19): Not Active; ED50 (Rattus norvegicus [6]; Rattus norvegicus, Sprague-Dawley, po): 0.3 mg/kg; inhibition in vivo at 1 mg/kg (Rattus norvegicus [7]): 75%; Activity (Rattus norvegicus [8]): Dose-dependent effect; inhibition (INH) (Cytochrome P450 1A2): Not Active; inhibition (INH) (Cytochrome P450 3A4): Not Active; clearance [9]: 4 L/h/kg; inhibition (INH) (Cytochrome P450 2D6): Not Active; Activity (Rattus norvegicus [10]): Active; AUC(0-t) [11]: 1.45 µg·h/mL; half-life [12]: > 60 min; Activity (Rattus norvegicus [13]): Active; Vdss (Rattus norvegicus [14]): 1.5 L/kg; inhibition in vivo at 3 mg/kg (Rattus norvegicus [15]): 65%; concentration at 0.75 h [16]: 0.0208 µg/mL; half-life [17]: 126 min
7 | 2.82 | 0.0011 | Cn1cc(Br)c(C(=O)N2CCN(CCc3ccc(F)cc3F)CC2)n1 | inhibition at 3 µM (hERG (KCNH2)): 80%; half-life [12]: 9 min
8 | 4.15 | 0.0036 | Cn1cc(Br)c(C(=O)N2CCN(CCc3ccc(F)cc3)CC2)n1 | Cmax [3]: 0.048 µg/mL; bioavailability [5]: 9%; concentration at 0.75 h [18]: 0.0083 µg/mL; LBF (Rattus norvegicus [19]): 220%; EC50 (Rattus norvegicus [6]): 3 mg/kg; concentration at 0.75 h [20]: 0.0168 µg/mL; inhibition at 3 µM (hERG (KCNH2)): 79%; clearance [9]: 9.3 L/h/kg; AUC(0-t) [11]: 0.091 µg·h/mL; half-life [12]: 14 min; Vdss (Rattus norvegicus [14]): 8.1 L/kg; Kp at 0.75 h [21]: 2.02; half-life [17]: 84 min
9 | > 10 | 0.018 | Cn1cc(Br)c(C(=O)N2CCN(CCc3ccccc3F)CC2)n1 | 
10 | > 10 | 0.068 | Cn1cc(Br)c(C(=O)N2CCN(CCc3ccccc3)CC2)n1 | 
11 | > 10 | 0.368 | Cn1cc(Br)c(C(=O)N2CCN(CC(O)c3ccc(F)cc3)CC2)n1 (centres undefined) | 
12 | > 10 | 0.408 | COc1ccc(CCN2CCN(C(=O)c3nn(C)cc3Br)CC2)cc1 | 
13 | 5.61 | 6 | Cn1cc(Br)c(C(=O)N2CCN(CC(=O)c3ccc(OC(F)(F)F)cc3)CC2)n1 | 
14 | > 10 | 0.034 | Cn1cc(Br)c(C(=O)N2CCN(CCc3ccc(Cl)cc3)CC2)n1 | 

Continued, molecule first:

Row | SMILES | Ki [1] [µM] | Ki [2] [µM] | other results
15 | O=C(CN1CCN(C(=O)c2n[nH]cc2Cl)CC1)c1ccc(F)cc1 | 2.75 | 0.0185 | 
16 | Cn1cc(I)c(C(=O)N2CCN(CC(=O)c3ccc(F)cc3)CC2)n1 | 3.87 | 0.0045 | 
17 | Cn1cc(C(F)(F)F)c(C(=O)N2CCN(CC(=O)c3ccc(F)cc3)CC2)n1 | 3.87 | 0.028 | 
18 | O=C(Nc1[nH]ncc1Br)N1CCN(CCc2ccc(F)cc2)CC1 | > 10 | 0.088 | 
19 | CCn1cc(Cl)c(C(=O)N2CCN(CC(=O)c3ccc(F)cc3)CC2)n1 | > 10 | 0.0026 | inhibition in vivo at 3 mg/kg (Rattus norvegicus [15]): 54%
20 | Cn1cc(Br)c(C(=O)N2CCN(CCN3C(=O)c4ccccc4C3=O)CC2)n1 | > 10 | > 10 | 
21 | COc1ccc(NC(=O)Nc2ccc(F)cc2F)cc1-c1c(Br)cnn1C [NELOTANSERIN] | 0.11 | 0.00051 | concentration at 0.75 h [18]: 0.488 µg/mL; concentration at 0.75 h [20]: 0.32 µg/mL; Kp at 0.75 h [21]: 0.65
22 | Cn1ccc(C(=O)N2CCN(CC(=O)c3ccc(F)cc3)CC2)n1 | 1.42 | 0.037 | 
23 | Cc1cc(C(=O)N2CCN(CC(=O)c3ccc(F)cc3)CC2)nn1C | > 10 | 0.0085 | 
24 | Cc1cc(C(=O)N2CCN(CC(=O)c3ccc(F)cc3)CC2)nn1C(C)(C)C | > 10 | 0.0093 | 
25 | N#Cc1c[nH]c2c(C(=O)N3CCN(CCc4ccc(F)cc4)CC3)cccc12 [PRUVANSERIN] | 0.645 | 0.00048 | 
26 | COc1ccc(NC(=O)N2CCN(CCc3ccc(F)cc3)CC2)cc1-c1c(Cl)cnn1C | > 10 | 0.155 | 
27 | Cc1cc(C(=O)N2CCN(CC(=O)c3ccc(F)cc3)CC2)nn1-c1ccccc1 | 3.71 | 0.011 | 
28 | Cc1c(Br)c(C(=O)N2CCN(CC(=O)c3ccc(F)cc3)CC2)nn1C | 2.93 | 0.0046 | inhibition in vivo at 1 mg/kg (Rattus norvegicus [7]): 22%; inhibition at 3 µM (hERG (KCNH2)): 15%; half-life [12]: 29 min; inhibition in vivo at 3 mg/kg (Rattus norvegicus [15]): 65%
29 | Cc1nc2n(c(=O)c1CCN1CCN(C(=O)c3nn(C)cc3Br)CC1)CCCC2 | > 10 | > 10 | 
30 | Cc1cc(C(=O)N2CCN(CC(=O)c3ccc(F)cc3)CC2)[nH]n1 | > 10 | 0.036 | 
31 | Cc1[nH]nc(C(=O)N2CCN(CC(=O)c3ccc(F)cc3)CC2)c1Br | 3.57 | 0.0046 | 
